Assay results reported in patent US20260297129A1, “PEPTIDES AS SELECTIVE IL-23 RECEPTOR INHIBITORS” (SANOFI, priority 2023, published 2026).
Values after ≈ are worked out from the molar mass of the structure shown. Read-outs that look alike come from different tables or passages of the source. Numbered stars: 1 amine (or outer) side, 2 acyl side, 3 side chain; on linkers, the order of the positions; unused ones are H or OH. Bridge positions count the residues as written; N and C are the ends. Square brackets hold non-standard residues; d marks the D form. Peptide text beside a SMILES is read from it. * marks the point of attachment. Lys(Me,(CH2)4NMe(CH2)4CO) = CN(CCCCC(=O)[*:3])CCCCN(C)CCCC[C@H](N[*:1])C(=O)[*:2]; Trp(7-Me) = Cc1cccc2c(C[C@H](N)C(=O)O)c[nH]c12; NH(2-(3-pyridyl)ethyl) = c1cncc(CCN*)c1; Sebacoyl = O=C(CCCCCCCCC(=O)[*:2])[*:1]; αMeLys(Me2) = CN(C)CCCC[C@](C)(N)C(=O)O; 2Nal = N[C@@H](Cc1ccc2ccccc2c1)C(=O)O; 3Pal = N[C@@H](Cc1cccnc1)C(=O)O; Lys(Me) = CNCCCC[C@H](N)C(=O)O; Aun = NCCCCCCCCCCC(=O)O; Thp = NC1(C(=O)O)CCOCC1; Me2NCH2CH2 = CN(C)CC*; Aib = CC(C)(N)C(=O)O; Sar = CNCC(=O)O

Tests used:
[1] = Solubility of peptide compounds in buffer formulations (Table 5); type: physicochemical; details: target 1 mg/ml
Method: Prior to the solubility measurement of a peptide batch, its purity was determined through UHPLC/MS method A.
(§1) For solubility testing the target concentration was 1 mg pure compound/ml. Therefore, solutions from solid samples were prepared in a buffer system at a concentration of 1 mg/mL compound. The solid samples were obtained by drying down aliquots of a freshly prepared dimethyl sulfoxide stock solution using a THERMO SPEEDVAC vacuum centrifuge. The dry down time was 3 hours.
The following buffer systems were applied: • Solubility buffer system A) 50 mM HCl pH 1.2 • Solubility buffer system B) 50 mM phosphate buffer pH 6.5 • Solubility buffer system C) 50 mM phosphate buffer pH 7.4 • UHPLC-UV was performed using analytical method A after 2 hours of gentle agitation from the filtered (0.45 μm filter plates) solutions, which were obtained by 10 mins of centrifugation forced filtration at 1500 RCF (relative centrifugal acceleration).
The solubility was determined by the comparison of the UV peak area of 2 μL-injections of a buffered sample diluted 1:10 with a standard curve of a dimethyl sulfoxide reference sample of known concentration. The different extinction coefficients were taken into account for the calculation.

[2] = Chemical stability (relative purity loss) of peptide compounds in buffer formulations (Table 6); type: physicochemical; details: 2° C. and 37° C.
Method: Purity of a peptide batch was determined through UHPLC/MS method A prior to chemical stability measurement.
as §1, with “stability assessment,” for “solubility testing”, “0.5” for “1”, “acetonitrile” for “dimethyl sulfoxide”
The following buffer systems were applied: • Solubility buffer system A): 50 mM HCl pH 1.2+Acetonitrile (3:1). • Solubility buffer system B): 50 mM phosphate buffer pH 6.5+Acetonitrile (3:1). • Solubility buffer system C): 50 mM phosphate buffer pH 7.4+Acetonitrile (3:1). • Prepared solutions were stored for 24 hours at 2° C. and 37° C.
After this time course, the samples were centrifuged for 15 min at 2500 RCF to create a 1:5 dilution of the supernatant. Then 2 μl of the dilution were analyzed with UHPLC-UV applying method A.
The chemical stability was rated through the relative loss of purity calculated by the equation: […]

[3] = Protease stability in simulated intestinal fluids (FaSSIF) (Table 7); type: in vitro ADME; details: fassif with pancreatin, 37° C.; for remaining at 1 h, 1 µM: 60 min, read-out: Remaining percentage of peptide compound, FaSSIF 60 (min); for remaining at 2 h, 1 µM: 120 min, read-out: Remaining percentage of peptide compound, FaSSIF 120 (min); for remaining at 4 h, 1 µM: 240 min, read-out: Remaining percentage of peptide compound, FaSSIF 240 (min)
Method: (§2) Studies were carried out in simulated intestinal fluid (SIF) and simulated gastric fluid (SGF) to evaluate gastric stability of the peptide compounds disclosed herein.
Similarly, the term “Pancreatin-SIF” refers to a solution of simulated intestinal fluid containing pancreatin whereas “SIF-media” refers to a solution of simulated intestinal fluid without pancreatin. Pancreatin-SIF was prepared by dissolving 1 mg Pancreatin (MP Biomedicals) in 10 mL SIF media concentrate (PROSENSE).
(§3) Peptide compounds were first dissolved at 1 mM stock concentration in 0.01 HCl (+/−10% of DMSO) and were than diluted further with water to a stock concentration of 20 μM. Final peptide concentration in the incubation was 1 μM.
(§4) To 76 μL of the Pepsin-SGF buffer, 4 μL of the 20 μM peptide stock solution was added and incubated at 37° C. At each timepoint (0, 60, 120 and 240 minutes) the reaction was quenched with addition of 80 μL Ethanol (0.1% HCOOH). The samples were centrifuged for 20 minutes and an aliquot of the supernatant 100 μL were transferred to a LoBind-MTP plate and analyzed by LCMS/MS. The peak area response was calculated at each time point for each test compound. As internal reference, the peak area response of the same test compound at T0 was calculated. The percentage remaining at each timepoint was calculated based on the peak area response ratio of the test compound at T0. Time 0 was set to 100%, and all later timepoints were calculated relative to time 0.

[4] = Protease stability in simulated gastric fluids (FaSSGF) (Table 7); type: in vitro ADME; details: fassgf with pepsin, 60 min, 37° C., read-out: Remaining percentage of peptide compound, FaSSGF 60 (min)
Method: as §2
For clarification, the term “Pepsin-SGF” refers to a solution of simulated gastric fluid containing pepsin whereas “SGF media” refers to a solution of simulated gastric fluid without pepsin. Pepsin-SGF was prepared by dissolving 320 mg Pepsin (Merck Millipore) in 100 mL SGF media concentrate (PROSENSE).
as §3
as §4, with “(0,1%” for “(0.1%”
as §4

[5] = system: IL-23 induced STAT3 signaling (IL-23 receptor) in HEK-Blue IL-23 cells; test: Inhibition of IL-23 induced STAT3 signaling in HEK-Blue IL-23 cells, SEAP reporter (Table 9); type: cell-based; details: human IL23 0.25 ng/ml, overnight, read-out: Inhibition of IL-23 induced pSTAT3 (IC50 nM)
Excerpt: HEK-Blue™ IL-23 cells (INVIVOGEN) are designed for the detection of bioactive human (hIL-23) and murine IL-23 (mIL-23) by monitoring the activation of the STAT3 pathway. Binding of IL-23 to its receptor on the surface of HEK-Blue™ IL-23 cells triggers a signaling cascade leading to the activation of STAT3 and the subsequent production of secreted embryonic alkaline phosphatase (SEAP). This can be readily assessed using QUANTI-Blue™ Solution, a SEAP detection reagent.
HEK-Blue™ IL-23 cells were cultured as described by INVIVOGEN.
On the first day of assay 10 μL of the HEK-BLUE IL23 cell suspension (final concentration: 10,000 cells/well) and 10 μl of serially diluted peptides solutions were dispensed into a 384-well assay plate. After pre-incubation of the reaction mixtures at 37° C./5% CO2/95% humidity for 60 minutes, 10 μl of the humanIL23 cytokine (final concentration: 0.25 ng/ml) was added to each well for the STAT3 signaling activation. The plate was incubated overnight at 37° C./5% CO2/95% humidity.
On the second day 20 μl per well of QUANTI-BLUE detection solution (prepared according to the manufacture instruction) was dispensed into a new 384-well plate and followed by the transfer of 5 μl supernatant of the overnight incubated cell/sample mixtures. After incubation of 45 min at room temperature signals were measured with PHERASTAR (BMG) at OD 620-655 nm.
Dose response data were fitted with XLfit.

[6] = Buffer pH 1.1 (head; method: 50 mM HCl pH 1.2), 2 h agitation, read-out: Solubility, Buffer pH 1.1
[7] = aqueous buffer, 50 mM phosphate buffer pH 6.5, 2 h agitation, read-out: Solubility, Buffer pH 6.5
[8] = aqueous buffer, 50 mM phosphate buffer pH 7.4, 2 h agitation, read-out: Solubility, Buffer pH 7.4
[9] = 50 mM phosphate buffer pH 6.5 + acetonitrile (3:1), read-out: Chemical stability (relative purity loss), Buffer pH 6.5
[10] = 50 mM phosphate buffer pH 7.4 + acetonitrile (3:1), read-out: Chemical stability (relative purity loss), Buffer pH 7.4
[11] = 50 mm hcl + acetonitrile, Buffer pH 1.1 (head; method: 50 mM HCl pH 1.2 + acetonitrile 3:1), read-out: Chemical stability (relative purity loss), Buffer pH 1.1

solubility at 2 h [1, 6] [µg/mL]	solubility at 2 h [1, 7] [µg/mL]	solubility at 2 h [1, 8] [µg/mL]	degraded at 24 h [2, 9] [%]	degraded at 24 h [2, 10] [%]	degraded at 24 h [2, 11] [%]	remaining at 1 h, 1 µM [3] [%]	remaining at 2 h, 1 µM [3] [%]	remaining at 4 h, 1 µM [3] [%]	remaining at 1 h, 1 µM [4] [%]	SMILES	IC50 [5] [nM]
≥ 950	760 (≈ 458 µM)	260 (≈ 157 µM)	0	0.6	3.8	84	85	84	88	CC(=O)NCCCC[C@@H]1NC(=O)[C@H](Cc2c[nH]c3c(C)cccc23)NC(=O)CCCCCCCCCCNC(=O)CC[C@@H](C(=O)N[C@@H](CC(N)=O)C(=O)N[C@@H](Cc2cccnc2)C(=O)N(C)CC(N)=O)NC(=O)C(C)(C)NC(=O)[C@H](Cc2ccc3ccccc3c2)NC(=O)[C@H](Cc2ccc(OCCN(C)C)cc2)NC(=O)C2(CCOCC2)NC1=O [compound 16] ([Aun][Trp(7-Me)]K(Ac)[Thp]Y(Me2NCH2CH2)[2Nal][Aib]EN[3Pal][Sar]-NH2; lactam N-8)	0.37
≥ 1410	< 10	< 10	0	0	0	95	96	95	13	Cc1cccc2c(C[C@@H]3NC(=O)CCCCCCCCC(=O)N(C)CCCC[C@@H](C(=O)NCC(=O)NCCc4cccnc4)NC(=O)C(C)(C)NC(=O)[C@H](Cc4ccc5ccccc5c4)NC(=O)[C@H](Cc4ccc(OCCN(C)C)cc4)NC(=O)C4(CCOCC4)NC(=O)[C@H](CC(C)C)NC3=O)c[nH]c12 [compound 17] ([Trp(7-Me)]L[Thp]Y(Me2NCH2CH2)[2Nal][Aib][Lys(Me)]G-{NH(2-(3-pyridyl)ethyl)}; linker N-7 via Sebacoyl)	14.3
≥ 850	< 10	< 10	0	0.1	4.9	96	96	97	91	Cc1cccc2c(C[C@@H]3NC(=O)CCCCCCCCCCNC(=O)CC[C@@H](C(=O)N[C@@H](CC(N)=O)C(=O)N[C@@H](Cc4cccnc4)C(=O)N(C)CC(N)=O)NC(=O)[C@](C)(CCCCN(C)C)NC(=O)[C@H](Cc4ccc5ccccc5c4)NC(=O)[C@H](Cc4ccc(OCCN(C)C)cc4)NC(=O)C4(CCOCC4)NC(=O)[C@H](CCC(N)=O)NC3=O)c[nH]c12 [compound 20] ([Aun][Trp(7-Me)]Q[Thp]Y(Me2NCH2CH2)[2Nal][αMeLys(Me2)]EN[3Pal][Sar]-NH2; lactam N-8)	0.23
≥ 1200	≥ 1060	≥ 990	0	0	6.7	97	98	98	101	Cc1cccc2c(C[C@@H]3NC(=O)CCCCN(C)CCCCN(C)CCCC[C@@H](C(=O)NCC(=O)N[C@@H](Cc4cccnc4)C(=O)N(C)CC(N)=O)NC(=O)C(C)(C)NC(=O)[C@H](Cc4ccc5ccccc5c4)NC(=O)[C@H](Cc4ccc(OCCN(C)C)cc4)NC(=O)C4(CCOCC4)NC(=O)[C@H](CCC(N)=O)NC3=O)c[nH]c12 [compound 28] ([Trp(7-Me)]Q[Thp]Y(Me2NCH2CH2)[2Nal][Aib][Lys(Me,(CH2)4NMe(CH2)4CO)]G[3Pal][Sar]-NH2; lactam N-7)	2.14
